Where two headings read alike, the source gives them in different places.
Key:
[1] = molecular target: T1, human recombinant M2 (Homo sapiens, UniProt P08172); assay: Binding affinity at Muscarinic M2 receptor; settings: read-out: Receptor Affinity (pKi) Muscarinic M2 (converted)
T1 sequence (P08172 1-466): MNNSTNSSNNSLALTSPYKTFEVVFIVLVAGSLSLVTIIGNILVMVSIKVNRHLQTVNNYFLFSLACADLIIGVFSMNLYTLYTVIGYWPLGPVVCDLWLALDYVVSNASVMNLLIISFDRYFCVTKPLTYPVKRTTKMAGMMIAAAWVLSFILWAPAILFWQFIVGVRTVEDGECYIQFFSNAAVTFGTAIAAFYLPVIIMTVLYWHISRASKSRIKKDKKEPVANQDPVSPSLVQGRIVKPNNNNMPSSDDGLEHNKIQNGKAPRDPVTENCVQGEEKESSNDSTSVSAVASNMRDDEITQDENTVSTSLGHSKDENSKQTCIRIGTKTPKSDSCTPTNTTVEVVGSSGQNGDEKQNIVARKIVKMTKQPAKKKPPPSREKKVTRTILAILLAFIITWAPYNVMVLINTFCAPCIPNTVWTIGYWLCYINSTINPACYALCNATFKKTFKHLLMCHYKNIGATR

[2] = molecular target: T2, Histamine H1 receptor (Cavia porcellus, UniProt P31389); assay: Affinity to Histamine H1 receptor in guinea-pig cerebellum; assay type: binding; settings: read-out: Receptor Affinity (pKi) Histamine H1 (converted)
T2 construct: from tissue; host or cells: guinea-pig cerebellum

[3] = test system: male Wistar rats; assay: Novel object recognition model, scopolamine-induced memory impairment; assay type: in vivo, rat; settings: for reversal of the memory impairment induced by scopolamine (discrimination index d2): 90 or 60 mins prior to scopolamine 0.1 mg/kg ip; for reversal of scopolamine-induced memory impairment (discrimination index d2): with scopolamine 0.1 mg/kg sc, 30 mins prior to re-release
Description: Twenty-four 5-month-old male Wistar rats were used. The animals were housed individually in standard Makrolon cages on sawdust bedding in an air-conditioned room (about 20° C.). They were kept under a 12/12-hour light/dark cycle (lights on from 18.00 to 6.00 h) and had free access to food and water. Rats were housed and test in different rooms. A radio, which was playing softly, provided background noise in all rooms. All testing was done between 9.00 and 16.00 h.
Scopolamine hydrobromide was prepared daily and dissolved in saline. […] (injection volume 1 ml/kg) 30 minutes before trial 1. Test compounds were prepared daily and dissolved in saline, and the pH was adjusted to pH 5-7 using (0.1 N) NaOH. The compounds were administered orally or i.p. over a range of doses to n=12-24 animals per dose (injection volume 1 ml/kg). Time of dosing prior to first trial (T1) can be chosen to match the expected plasma Cmax for the compound. Administration was always given i.p. (injection volume 1 ml/kg).
The object recognition test was performed as described by Ennaceur and Delacour, Behav. Brain Res., 1988, 31, 47-59. This test measures the memory of an animal, by testing the ability of the animal to recognize that there is a new object in its environment. The apparatus consisted of a circular arena, 83 cm in diameter. Half of the 40 cm high wall was made of gray polyvinyl chloride, the other half of transparent polyvinyl chloride. The light intensity was equal in the different parts of the apparatus. Two objects were placed in a symmetrical position about 10 cm away from the gray wall. Each object was available in triplicate. Four different sets of objects were used: 1) a cone consisting of a gray polyvinyl chloride base (maximal diameter 18 cm) with a brass collar on top (total height 16 cm), 2) a standard 1 l transparent glass bottle (diameter 10 cm, height 22 cm) filled with sand, 3) a massive metal block (10.0×5.0×7.5 cm) with two holes (diameter 1.9 cm), and 4) a massive aluminum block with a tapering top (13.0×8.0×8.0 cm). A rat could not displace the objects. Fluorescent red tubes and a light bulb provided a constant illumination of about 20 lux on the floor of the apparatus.
A testing session comprised two trials. The duration of each trial was 3 min. During the first trial (T1) the apparatus contained two identical objects (samples). A rat was always placed in the apparatus facing the wall at the middle of the front (transparent) segment. After the first exploration period the rat was put back in its home cage. Subsequently, after a predetermined delay interval, the rat was put back in the apparatus for the second trial (T2), but now with two dissimilar objects, a familiar one (the sample) and a new object. The times spent in exploring each object during T1 and T2 were recorded manually with a personal computer. “Exploration” was defined as directing the nose to the object at a distance of no more than 2 cm and/or touching the object with the nose. Sitting on the object was not considered as exploratory behavior. In order to avoid the presence of olfactory trails the objects were always thoroughly cleaned. […]
Rats were treated with Compound 18 (0.3, 1, 3 mg/kg po) or Compound 3 (0.1, 0.3, 1 and 3 mg/kg i.p.) 90 or 60 mins prior to administration of scopolamine (0.1 mg/kg ip). The time each animal spent investigating the novel and familiar objects in the arena during a over a 3 min interval, commencing 30 minutes after the administration of scopolamine, was scored. […]

[4] = molecular target: T3, human recombinant M1 (Homo sapiens, UniProt P11229); assay: Binding affinity at Muscarinic M1 receptor; settings: read-out: Receptor Affinity (pKi) Muscarinic M1 (converted)
T3 sequence (P11229 1-460): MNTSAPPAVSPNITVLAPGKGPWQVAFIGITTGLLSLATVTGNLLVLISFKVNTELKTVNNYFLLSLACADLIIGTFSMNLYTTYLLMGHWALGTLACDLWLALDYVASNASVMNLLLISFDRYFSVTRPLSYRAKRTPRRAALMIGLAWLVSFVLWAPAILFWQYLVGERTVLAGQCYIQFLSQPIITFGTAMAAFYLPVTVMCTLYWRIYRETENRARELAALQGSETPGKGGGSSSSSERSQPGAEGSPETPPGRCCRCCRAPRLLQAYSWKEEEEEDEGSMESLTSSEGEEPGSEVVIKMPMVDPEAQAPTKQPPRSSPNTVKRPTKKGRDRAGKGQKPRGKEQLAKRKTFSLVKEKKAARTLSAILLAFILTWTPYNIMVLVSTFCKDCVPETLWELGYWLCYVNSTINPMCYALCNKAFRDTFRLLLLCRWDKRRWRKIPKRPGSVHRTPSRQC

[5] = molecular target: T4, human recombinant 5-HT2C (Homo sapiens, UniProt P28335); assay: Receptor affinity at 5-HT2C (Table 1; only a FLIPR calcium method is described); assay type: binding
T4 sequence (P28335 33-458): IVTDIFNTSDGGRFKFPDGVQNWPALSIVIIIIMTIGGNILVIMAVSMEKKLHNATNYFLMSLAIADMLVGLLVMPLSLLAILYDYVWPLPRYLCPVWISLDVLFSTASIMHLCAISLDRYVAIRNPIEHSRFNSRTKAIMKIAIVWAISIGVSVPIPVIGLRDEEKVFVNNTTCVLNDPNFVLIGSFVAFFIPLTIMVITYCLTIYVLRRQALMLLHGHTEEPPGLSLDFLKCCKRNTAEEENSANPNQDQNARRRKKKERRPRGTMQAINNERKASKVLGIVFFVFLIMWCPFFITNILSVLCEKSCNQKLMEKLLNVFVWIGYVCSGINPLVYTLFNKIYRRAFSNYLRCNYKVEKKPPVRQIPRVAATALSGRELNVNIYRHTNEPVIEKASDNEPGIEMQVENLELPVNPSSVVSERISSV

[6] = molecular target: T5, human 5-HT6 (Homo sapiens, UniProt P50406); assay: Competition binding with [3H]-LSD at membranes of HEK-293 cells expressing human 5-HT6
T5 construct: expressed in transfected cells; host or cells: HEK-293 (HEK293-h5-HT6)
Description: All test and control compounds were dissolved in 100% DMSO at 10 mM and diluted as indicated in aqueous assay buffer. K1 values are presented at the mean and standard deviation of 3 separate determinations each consisting of the compound tested at each concentration in duplicate.

[7] = molecular target: human recombinant 5-HT2A (Homo sapiens, UniProt P28223); assay: Receptor affinity at 5-HT2A (Table 1; only a FLIPR calcium method is described); assay type: binding; settings: read-out: Receptor Affinity (pKi) 5-HT2A (converted)
[8] = molecular target: human recombinant D2 receptor (Homo sapiens, UniProt P14416); assay: Ligand binding affinity at Dopamine D2 receptor; settings: read-out: Receptor Affinity (pKi) Dopamine D2 (converted)
[9] = test system: rat brain hippocampal slices (CA1 region); assay: Long term potentiation in rat hippocampal slices (CA1), fEPSP; assay type: cell-based; settings: weak tetanus 50 Hz, 500 ms; room temperature
[10] = read-out: Receptor Affinity (pKi) 5-Ht2C (converted)
[11] = [3H]-LSD, HEK293-h5-HT6 membranes, read-out: Receptor Affinity (pKi) 5-HT6 (converted)

T5 sequence (P50406 whole entry): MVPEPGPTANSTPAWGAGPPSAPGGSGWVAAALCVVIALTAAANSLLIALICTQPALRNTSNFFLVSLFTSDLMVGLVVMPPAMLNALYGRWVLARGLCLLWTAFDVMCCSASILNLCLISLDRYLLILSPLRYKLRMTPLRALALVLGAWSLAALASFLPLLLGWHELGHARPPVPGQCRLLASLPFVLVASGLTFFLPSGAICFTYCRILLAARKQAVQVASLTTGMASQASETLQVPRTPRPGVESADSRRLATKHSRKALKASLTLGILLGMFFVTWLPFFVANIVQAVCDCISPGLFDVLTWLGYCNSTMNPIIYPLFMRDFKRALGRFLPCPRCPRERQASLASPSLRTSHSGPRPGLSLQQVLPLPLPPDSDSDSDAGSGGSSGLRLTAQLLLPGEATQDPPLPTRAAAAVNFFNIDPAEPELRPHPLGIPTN
T2 sequence (P31389 whole entry): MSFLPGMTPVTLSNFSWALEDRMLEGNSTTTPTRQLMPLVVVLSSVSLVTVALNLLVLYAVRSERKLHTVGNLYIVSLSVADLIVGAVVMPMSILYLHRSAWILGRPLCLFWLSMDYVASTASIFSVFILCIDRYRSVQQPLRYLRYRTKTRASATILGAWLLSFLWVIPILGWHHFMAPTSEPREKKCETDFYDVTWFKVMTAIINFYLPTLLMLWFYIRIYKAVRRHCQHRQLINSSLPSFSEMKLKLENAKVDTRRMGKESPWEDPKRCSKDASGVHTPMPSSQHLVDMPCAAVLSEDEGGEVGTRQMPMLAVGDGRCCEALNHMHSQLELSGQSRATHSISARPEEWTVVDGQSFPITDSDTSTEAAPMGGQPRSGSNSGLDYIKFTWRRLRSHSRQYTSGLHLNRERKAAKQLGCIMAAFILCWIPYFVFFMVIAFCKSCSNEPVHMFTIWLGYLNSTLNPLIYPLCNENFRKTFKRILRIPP
Chain of human recombinant D2 receptor (P14416 whole entry): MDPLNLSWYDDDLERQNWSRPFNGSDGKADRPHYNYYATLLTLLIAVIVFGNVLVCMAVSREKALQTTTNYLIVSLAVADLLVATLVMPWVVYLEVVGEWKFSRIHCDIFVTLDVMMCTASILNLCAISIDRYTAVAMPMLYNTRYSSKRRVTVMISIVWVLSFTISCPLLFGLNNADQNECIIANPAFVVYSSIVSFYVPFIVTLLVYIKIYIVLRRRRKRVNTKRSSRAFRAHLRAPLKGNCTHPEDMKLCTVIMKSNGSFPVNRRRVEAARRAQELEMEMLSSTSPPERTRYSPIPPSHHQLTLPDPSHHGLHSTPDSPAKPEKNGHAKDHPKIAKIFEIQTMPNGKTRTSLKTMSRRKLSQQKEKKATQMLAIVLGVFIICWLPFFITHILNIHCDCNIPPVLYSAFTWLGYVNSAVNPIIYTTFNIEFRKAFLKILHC
Chain of human recombinant 5-HT2A (P28223 whole entry): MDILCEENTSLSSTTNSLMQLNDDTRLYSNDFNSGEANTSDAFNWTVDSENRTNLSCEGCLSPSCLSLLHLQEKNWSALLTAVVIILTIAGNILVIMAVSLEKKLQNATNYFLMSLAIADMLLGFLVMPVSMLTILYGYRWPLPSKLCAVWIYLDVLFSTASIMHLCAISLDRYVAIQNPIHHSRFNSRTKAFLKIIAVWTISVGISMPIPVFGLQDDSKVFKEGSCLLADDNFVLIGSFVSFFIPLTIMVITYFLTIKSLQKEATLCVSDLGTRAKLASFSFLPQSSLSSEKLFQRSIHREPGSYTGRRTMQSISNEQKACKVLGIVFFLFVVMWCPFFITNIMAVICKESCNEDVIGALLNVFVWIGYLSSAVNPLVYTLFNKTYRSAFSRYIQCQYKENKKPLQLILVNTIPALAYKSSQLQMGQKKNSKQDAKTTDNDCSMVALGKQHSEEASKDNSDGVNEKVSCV

`O=C1COc2c(N3CCNCC3)cccc2N1Cc1ccccc1` [Compound 3, 4-benzyl-8-piperazin-1-yl-4H-benzo[1,4]oxazin-3-one] was tested, and the Ki [1] was over 1000 nM, the Ki [2] was over 1000 nM and the “reversal of the memory impairment induced by scopolamine (discrimination index d2)” value ([3]; 0.3 mg/kg i.p.) was “statistically significant reversal”. The Ki [4] was over 1000 nM, the Ki [5] was 63.1 nM and the Ki [6] was 0.158 nM. The Ki [7] was 1.26 nM and the Ki [8] was over 1000 nM.

`O=C1NCc2c(N3CCNCC3)cccc2N1Cc1cccc(F)c1` [Compound 18, 1-(3-Fluoro-benzyl)-5-piperazin-1-yl-3,4-dihydro-1H-quinazolin-2-one] was tested, and the Ki [1] was over 1000 nM, the Ki [2] was over 1000 nM and the “reversal of the memory impairment induced by scopolamine (discrimination index d2)” value ([3]; 0.3 mg/kg po) was “statistically significant reversal”. The “reversal of the memory impairment induced by scopolamine (discrimination index d2)” value ([3]; 1 mg/kg po) was “statistically significant reversal”, the Ki [4] was over 1000 nM and the Ki [5] was 63.1 nM. It also gave a Ki [6] of 0.631 nM, a Ki [7] of 2 nM and a Ki [8] of over 1000 nM.

`CN1CCN(c2cccc3c(S(=O)(=O)c4ccccc4)c[nH]c23)CC1` [Compound 32, 3-phenylsulfonyl-7-(4-methyl-piperazin-1-yl)-1H-indole] was tested, and the Ki [1] was over 316 nM, the Ki [2] was over 316 nM and the “reversal of scopolamine-induced memory impairment (discrimination index d2)” value ([3]; 3 mg/kg ip) was “Statistically significant reversal”. The Ki [4] was over 316 nM, the Ki [5, 10] was 158 nM and the Ki [6, 11] was 0.316 nM. For the same compound, the Ki [7] was 79.4 nM and the Ki [8] was over 1000 nM.

Work on `N=C(N)NCC1CCCc2cc(S(=O)(=O)c3ccccc3)ccc21` (stereo not drawn) [Compound 52, N-(6-Phenylsulfonyl-1,2,3,4-tetrahydro-naphthalen-1-ylmethyl)-guanidine] yielded a Ki [1] of over 1000 nM, a Ki [2] of over 1000 nM and a Ki [4] of over 1000 nM. The Ki [5, 10] was 1000 nM, the Ki [6, 11] was 1.26 nM and the Ki [7] was 794 nM. The Ki [8] was over 1000 nM.

Work on `O=c1[nH]c2c(N3CCNCC3)cccc2n1Cc1ccccc1` [Compound 64, 1-Benzyl-4-piperazin-1-yl-1,3-dihydro-benzoimidazol-2-one] yielded a Ki [1] of over 316 nM, a Ki [2] of over 316 nM and a Ki [4] of 200 nM. For the same compound, the Ki [5, 10] was 631 nM, the Ki [6] was 0.251 nM and the Ki [7] was 25.1 nM. For the same compound, the Ki [8] was over 1000 nM.

`COc1cccc([C@H](O)C2CCN(CCc3ccc(F)cc3)CC2)c1OC` [MDL-100907, R-α-(2,3-dimethoxyphenyl)-1-[2-(4-fluorophenyl)ethyl]-4-piperidinemethanol, reference compound] was tested, and the “reversal of scopolamine-induced memory impairment (discrimination index d2)” value ([3]; 0.3 mg/kg ip) was “Statistically significant reversal” and the “long term potentiation, increase in slope of fEPSP relative to pre-tetanus baseline” value [9] was “Increase in long term potentiation”.

For `CN(C)CCO/N=C(/C=C/c1ccc(O)cc1)c1ccccc1F` [SR46349B, (1Z,2E)-1-(2-fluorophenyl)-3-(4-hydroxyphenyl)prop-2-en-1-one-O-(2-dimethylaminoethyl)oxime, reference compound], the Ki [1] was over 1000 nM, the Ki [2] was over 1000 nM and the Ki [4] was over 316 nM. The Ki [5] was 100 nM, the Ki [6, 11] was over 1000 nM and the Ki [7] was 1 nM. It also gave a Ki [8] of over 1000 nM.
